{"source": "paper PMC10029296", "about": "“Glepaglutide, a novel glucagon-like peptide-2 agonist, has anti-inflammatory and mucosal regenerative effects in an experimental model of inflammatory bowel disease in rats” (BMC Gastroenterology, 2023)", "key": {"[1]": {"system": "patients with moderate to severe CD", "conditions": "8 weeks of treatment, failed to reach statistical significance; cited from earlier work", "from_the_text": "Use of GLP-2 agonists for the treatment of IBD is not a novel concept. The ability of teduglutide to induce remission or to reduce the Crohn’s disease activity index (CDAI) score by at least 100 points after 8 weeks of treatment was examined in patients with moderate to severe CD [37]. […] We speculate that the study was underpowered and that the assessment of mucosal healing, rather than the CDAI, would have been a better endpoint to assess the effect of ..."}, "hGLP-2R": {"molecular_target": "T1, hGLP-2R (Homo sapiens, UniProt O95838, D470N)", "T1 sequence (O95838 1-553 D470N)": "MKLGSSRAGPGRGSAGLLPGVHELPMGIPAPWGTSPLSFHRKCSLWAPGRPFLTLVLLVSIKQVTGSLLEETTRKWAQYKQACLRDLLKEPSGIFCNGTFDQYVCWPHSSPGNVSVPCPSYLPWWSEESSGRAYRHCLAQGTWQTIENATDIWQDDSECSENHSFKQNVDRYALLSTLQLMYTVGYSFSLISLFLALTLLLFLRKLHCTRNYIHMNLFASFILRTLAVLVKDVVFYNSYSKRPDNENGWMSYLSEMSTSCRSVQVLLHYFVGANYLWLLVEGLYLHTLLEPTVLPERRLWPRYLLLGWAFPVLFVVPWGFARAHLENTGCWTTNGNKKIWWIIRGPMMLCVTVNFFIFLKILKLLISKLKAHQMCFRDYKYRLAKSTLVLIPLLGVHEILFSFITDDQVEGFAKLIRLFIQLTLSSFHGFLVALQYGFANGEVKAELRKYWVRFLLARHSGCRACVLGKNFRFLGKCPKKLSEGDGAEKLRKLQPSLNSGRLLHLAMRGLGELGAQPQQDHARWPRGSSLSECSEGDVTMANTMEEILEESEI", "test": "cAMP accumulation assay in HEK293 cells stably expressing hGLP-2R (AlphaScreen)", "description": "For assaying, HEK293 cells stably expressing hGLP-2R were seeded at 30,000 cells per well in 96-well microtiter plates coated with 0.01% poly-L-lysine. […] The reaction was stopped by decanting off the compound/buffer and replacing it with 80 µl lysis/detection buffer consisting of deionized water supplemented with 0.1% w/v BSA (Sigma-Aldrich A9430), 5 mM HEPES, and 0.3% v/v Tween-20 (Sigma-Aldrich P7949).\nCompound potency (EC50) and maximal effect (Emax) values were estimated by computer-aided curve fitting using a three-parameter logistic non-linear model."}, "[2]": {"system": "Wistar rats with INDO-induced small intestinal inflammation", "test": "INDO-induced small intestinal inflammation model, co- and post-treatment", "type": "in vivo, rat", "conditions": "400 nmol/kg SC twice daily", "method": "Two treatment regimens were studied: glepaglutide (400 nmol/kg, SC, twice daily) was administered in a co-treatment regimen (Fig. 1B – administered at inflammation onset and throughout), and a post-treatment regimen (Fig. 1C – administered after inflammation onset and throughout).\nTwo groups of controls, INDO controls (administered with INDO and treated with vehicle) and controls (administered with saline solution and treated with vehicle), were included in the studies (Fig. 1B and C). Groups of rats (n = 7–15) were sacrificed during the active inflammation phase (2–3 days after inflammation onset), on day 3 for the co-treatment regimen (Fig. 1B) and on day 4 for the post-treatment regimen (Fig. 1C), to determine small intestinal length, jejunal and ileal mass, and α-1-acid glycoprotein (α-1-AGP) and myeloperoxidase (MPO) concentrations in the jejunum and ileum. Equivalent groups of rats were sacrificed during the body weight recovery phase (14–15 days after inflammation onset), on day 14 for the co-treatment regimen (Fig. 1B), and on day 16 for the post-treatment regimen (Fig. 1C), to determine jejunal and ileal mass. Body weight and survival were recorded daily.\n(§1) Animals were anesthetized with carbon dioxide and then sacrificed by cervical dislocation. The small intestine (from the pylorus to the ileocecal junction) was dissected away from the abdomen and the surrounding mesenteric fat. Small intestinal length was measured after weighing the small intestine with a 1 g weight to obtain uniform tension. Thereafter, the small intestine was divided into two segments of equal length labeled as the jejunum and ileum. Segments were gently flushed with 0.9% saline, padded dry, and weighed. A 5 cm biopsy was collected 10 cm distal from the start of the jejunal segment, and another 5 cm biopsy was collected 10 cm distal from the start of the ileal segment. The biopsies were immediately frozen in liquid nitrogen and stored at -80 °C for later analysis of concentrations of α-1-AGP and MPO using commercially available enzyme-linked immunosorbent assay kits (Life Diagnostics [2510–2] and Hycult Biotech [HK 210], respectively). The preparation method was validated in house.\nData are presented as mean ± standard error of the mean, unless otherwise stated. The intestinal growth-promoting effect of glepaglutide in naive rats was determined using a two-way analysis of variance (ANOVA, dose and time), and significant findings were further analyzed with the Bonferroni post hoc test. In the INDO model, a t-test was used to compare INDO control-treated rats with vehicle control-treated rats, and INDO control-treated rats with glepaglutide-treated rats. A p value of ≤ 0.05 was considered statistically significant. Grubbs’ test was used to test for outliers in the section, and outliers were not included in the analyses. Differences in survival between different groups were compared by the Cox–Mantel log-rank test."}, "naive Wistar rats": {"system": "naive Wistar rats", "test": "Intestinotrophic effect in naive rats", "type": "in vivo, rat", "conditions": "80 and 400 nmol/kg SC once daily for 7 days, vs vehicle, 400 vs 80 nmol/kg p < 0.05", "method": "Glepaglutide (80 nmol/kg or 400 nmol/kg, SC, once daily) or vehicle (SC, once daily) were administered for 14 days to naive Wistar rats to assess the intestinotrophic properties of the peptide, before initiating studies in the small intestinal inflammation model (Fig. 1A). Overall, 18 rats were included per arm, with 6 rats each sacrificed on day 0, day 7, and day 14.\nas §1, with “The biopsies were immediately frozen in liquid nitrogen and stored at -80 °C for later analysis of concentrations of α-1-AGP and MPO using commercially available enzyme-linked immunosorbent assay kits (Life Diagnostics [2510–2] and Hycult Biotech [HK 210], respectively). The preparation method was validated in house.” left out\nData are presented as mean ± standard error of the mean, unless otherwise stated. The intestinal growth-promoting effect of glepaglutide in naive rats was determined using a two-way analysis of variance (ANOVA, dose and time), and significant findings were further analyzed with the Bonferroni post hoc test. […]"}, "male Wistar rats [3]": {"system": "male Wistar rats", "conditions": "rat, in vivo", "description": "In this study, a dose of INDO 7 mg/kg was used based on the results of an INDO-induced small intestinal inflammation model validation study conducted by Zealand Pharma."}, "male Wistar rats [4]": {"system": "male Wistar rats", "test": "INDO-induced small intestinal inflammation model validation study (INDO dose finding)", "conditions": "data not shown"}, "[5]": {"conditions": "co-treatment, body weight recovery phase (day 14), vs INDO controls"}, "[6]": {"conditions": "post-treatment, active inflammation phase (day 4), ELISA, vs INDO controls, p < 0.01"}, "[7]": {"conditions": "post-treatment, body weight recovery phase (day 16), vs INDO controls"}}, "note": "No end group written: not given here."}
{"compound": "[Gly^2]GLP-2 [teduglutide]", "values": [{"measurement": "Effect on CDAI score", "setting": "[1]", "value": "positive, dose-dependent effect"}]}
{"compound": "HGEGTFSSELATILDALAARDFIAWLIATKITDKKKKKK-NH2 [Glepaglutide]", "values": [{"measurement": "EC50", "setting": "hGLP-2R; SEM", "value": 0.0933, "unit": "nM"}, {"measurement": "Survival", "setting": "[2]; co- and post-treatment regimens, Cox–Mantel log-rank test", "value": "no effect"}]}
{"compound": "HGEGTFSSELATILDALAARDFIAWLIATKITDKKKKKK-NH2 (C-terminus assumed) [Glepaglutide]", "values": [{"measurement": "Emax ± SEM, agonism of hGLP-2R (cAMP accumulation)", "setting": "hGLP-2R; response normalized to a saturating concentration of hGLP-2 and baseline cAMP of unstimulated receptor, mean ± SEM, n = 5", "value": "102 ± 3.7"}, {"measurement": "Small intestinal mass, day 7", "setting": "naive Wistar rats", "value": "dose-dependently increased"}, {"measurement": "Ileal MPO concentration, co-treatment", "setting": "[2]; co-treatment, active inflammation phase (day 3), ELISA, vs INDO controls, p < 0.001", "value": "significantly decreased"}, {"measurement": "Ileal α-1-AGP concentration, co-treatment", "setting": "[2]; co-treatment, active inflammation phase (day 3), ELISA, vs INDO controls, p < 0.05", "value": "significantly decreased"}, {"measurement": "Small intestinal shortening (small intestinal length), co-treatment", "setting": "[2]; co-treatment, active inflammation phase (day 3), vs INDO controls, p < 0.001", "value": "reversed"}, {"measurement": "Ileal mass, co-treatment, active inflammation phase", "setting": "[2]; co-treatment, active inflammation phase, vs INDO controls, p < 0.05", "value": "significantly increased"}, {"measurement": "Ileal mass, co-treatment, body weight recovery phase", "setting": "[2]; [5]", "value": "significantly increased"}, {"measurement": "Jejunal mass, co-treatment, body weight recovery phase", "setting": "[2]; [5]", "value": "significantly increased"}, {"measurement": "Acute body weight loss, co-treatment", "setting": "[2]; co-treatment, vs INDO controls, p < 0.001, data not shown", "value": "significantly decreased"}, {"measurement": "Ileal α-1-AGP concentration, post-treatment", "setting": "[2]; [6]", "value": "significantly decreased"}, {"measurement": "Jejunal α-1-AGP concentration, post-treatment", "setting": "[2]; [6]", "value": "significantly decreased"}, {"measurement": "Jejunal MPO concentration, post-treatment", "setting": "[2]; post-treatment, active inflammation phase (day 4), ELISA, vs INDO controls, p < 0.05", "value": "significantly decreased"}, {"measurement": "Small intestinal shortening (small intestinal length), post-treatment", "setting": "[2]; post-treatment, active inflammation phase (day 4), vs INDO controls, p = 0.05", "value": "significantly reversed"}, {"measurement": "Ileal mass, post-treatment, body weight recovery phase", "setting": "[2]; [7]", "value": "significantly increased"}, {"measurement": "Jejunal mass, post-treatment, body weight recovery phase", "setting": "[2]; [7]", "value": "significantly increased"}, {"measurement": "Acute body weight loss, post-treatment", "setting": "[2]; post-treatment, data not shown", "value": "no effect"}]}
{"compound": "COc1ccc2c(c1)c(CC(=O)O)c(C)n2C(=O)c1ccc(Cl)cc1", "note": "[INDO, indomethacin]", "values": [{"measurement": "Induction of inflammation, INDO 3 mg/kg", "setting": "male Wistar rats [3]", "value": "insufficient for inducing inflammation"}, {"measurement": "Induction of macroscopic features of inflammation, INDO 7 mg/kg", "setting": "male Wistar rats [3]", "value": "sufficient and appropriate"}, {"measurement": "Mortality, INDO 15 mg/kg", "setting": "male Wistar rats [4]", "value": "exaggerated mortality"}]}
